Patent publication US20260242824A1, “ONCOLYTIC VIRUSES TO TREAT BRAIN CANCER” (priority 2023, published 2026)

B1: Recombinant murine IL-11: recombinant murine IL-11 used to stimulate astrocytes at 50 ng/ml (protein, UniProt P47873 22-199, looked up)
Interleukin-11: PGPPAGSPRVSSDPRADLDSAVLLTRSLLADTRQLAAQMRDKFPADGDHSLDSLPTLAMSAGTLGSLQLPGVLTRLRVDLMSYLRHVQWLRRAGGPSLKTLEPELGALQARLERLLRRLQLLMSRLALPQAAPDQPVIPLGPPASAWGSIRAAHAILGGLHLTLDWAVRGLLLLKTRL

Legend:
[1] = tested on: Tnfsf10 expression in astrocytes; assay: Tnfsf10 mRNA (qPCR) in stimulated primary mouse astrocytes; assay type: cell-based
Protocol: Isolation, culture, and stimulation of primary mouse astrocytes. Primary murine astrocytes were isolated from neonatal brains as previously described. Briefly, wild-type mouse pups aged 1-3 days were cryoanesthetized and decapitated. Whole brains were extracted, and 2-3 brains pooled per culture. After centrifugation for 5 min at 500×g, tissues were resuspended in 5 mL pre-warmed 0.25% Trypsin-EDTA (Thermo Fisher Scientific, 25200-072) and incubated at 37° C. for 10 min, followed by addition of culture medium to stop the dissociation reaction, and mechanical disaggregation by strong pipetting. The suspension was then filtered through a 70 μm nylon strainer and centrifuged 5 min at 500×g. Finally, the suspension was seeded onto T75 flasks (Falcon, 353136) that were coated at room temperature for 10 min with poly-L-lysine (Sigma-Aldrich, P4707). Mixed glial cultures were grown for at least 10 days prior to enrichment of astrocytes per the following method. […]
For quantitative analysis of gene transcription from cultured cells cellular RNA was extracted by use of RNeasy Kit (Qiagen, 74004). […] Quantitative measurement of gene expression was performed by qPCR using Taqman Fast Universal PCR Master Mix (Life Technologies, 4367846), MicroAmp Optical 384 well plates (Thermo Fisher Scientific, 43-098-49) and a ViiA 7 Real-Time PCR System (Applied Biosciences). […]

STAT3 = conditions: 2 μM in dimethyl sulfoxide; reported in ref [40]; cited from earlier work

Molecule	TCM-induced expression of Tnfsf10 transcripts upon STAT inhibition ([1]; GL261 TCM-stimulated astrocytes, inhibitor 2 μM, vs vehicle)	effectiveness and cytotoxicity at the concentration used (STAT3)	Tnfsf10 expression upon recombinant murine IL-11 alone ([1]; astrocytes, 50 ng/ml, levels comparable to GL261 TCM, vs control medium)
O=C(Nc1ccc([N+](=O)[O-])cc1Cl)c1cc(Cl)ccc1O [BAY2353, Niclosamide]	fully abrogated	effective but not cytotoxic	
B1			sufficient to induce Tnfsf10 expression
